Here are results for 22 molecules from US20080188481A1 (priority 2002, published 2008).

The term EC50 denotes the midpoint of the concentration-response curve.

The experiment relates to HIV-1 single-round infectious reporter virus. The experiment can be described thus: Single-round infectious HIV-1 luciferase reporter virus infection of HeLa CD4 cells (antiviral EC50). The format is cell-based. The following applies: Human immunodeficiency virus 1, HeLa, 72 h, read-out: EC50 Group from Table 1. The method in brief: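 HeLa CD4 cells infected with env-pseudotyped, luciferase-reporter single-round HIV-1 (MOI ~0.01) in presence of compound (final ≤10 μM), harvested 72 h at 37 °C. Luciferase luminescence expressed as percent inhibition versus no-compound control; EC50 from 10-concentration four-parameter logistic fit.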
Consider `COc1ncc(OC)c2c(C(=O)C(=O)N3CCC(=C(c4ccccc4)c4nccs4)CC3)c[nH]c12` [Example 49a, 1-[4-(1-Phenyl-1-(thiazol-2-yl)-methylene)-piperidin-1-yl]-2-(4,7-dimethoxy-6-azaindol-3-yl)-ethane-1,2-dione], for which the EC50 is less than 1 µM.
The figure for `COc1ncc(OC)c2c(C(=O)C(=O)N3CCC(=C(c4ccccc4)c4ccco4)CC3)c[nH]c12` [Example 54] is less than 1 µM; for `N#CC(=C1CCN(C(=O)C(=O)c2c[nH]c3c(-n4cncn4)ncc(F)c23)CC1)c1ccccc1` [Example 110, {1-[2-(4-Fluoro-7-[1,2,4]triazol-1-yl-1H-pyrrolo[2,3-c]pyridin-3-yl)-2-oxo-acetyl]-piperidin-4-ylidene}-phenyl-acetonitrile] it is less than 1 µM.
To `COc1cnc(-n2cnc(C)n2)c2[nH]cc(C(=O)C(=O)N3CCC(=C(c4ccccc4)c4nnco4)CC3)c12` [Example 131, 1-[4-(1-Phenyl-1-(1,3,4-oxadiazol-2-yl)-methylene)-piperidin-1-yl]-2-[4-methoxy-7-(3-methyl-1,2,4-triazol-1-yl)-6-azaindol-3-y]-ethane-1,2-dione] belongs less than 1 µM; to `COc1ncc(OC)c2c(C(=O)C(=O)N3CCC(=C(C(N)=O)c4ccccc4)CC3)c[nH]c12` [Example 47], less than 1 µM.
`COc1cnc(-n2cc(C)nn2)c2[nH]cc(C(=O)C(=O)N3CCC(=C(c4ccccc4)c4nnc(C)o4)CC3)c12` [Example 138, 1-[4-(1-Phenyl-1-(5-methyl-1,3,4-oxadiazol-2-yl)-methylene)-piperidin-1-yl]-2-(4-methoxy-7-(4-methyl-1,2,3-triazol-1-yl)-6-azaindol-3-yl)-ethane-1,2-dione]: the concentration giving a half-maximal response (EC50) was less than 1 µM.
Turning to `COc1ncc(OC)c2c(C(=O)C(=O)N3CCC(=C(c4ccccc4)c4nnco4)CC3)c[nH]c12` [Example 51, 1-[4-(1-Phenyl-1-(1,3,4-oxadiazol-2-yl)-methylene)-piperidin-1-yl]-2-(4,7-dimethoxy-6-azaindol-3-yl)-ethane-1,2-dione], the half-maximal effective concentration (EC50) is less than 1 µM.
To `COc1ncc(OC)c2c(C(=O)C(=O)N3CCC(=C(c4ccccc4)c4cccc(SC)c4)CC3)c[nH]c12` [Example 68] belongs less than 1 µM; to `COc1cnc(-n2cnc(C)n2)c2[nH]cc(C(=O)C(=O)N3CCC(=C(c4ccccc4)c4nnc(C5CCC5)o4)CC3)c12` [Example 133, 1-[4-(1-Phenyl-1-(5-cyclobutyl-1,3,4-oxadiazol-2-yl)-methylene)-piperidin-1-yl]-2-[4-methoxy-7-(3-methyl-1,2,4-triazol-1-yl)-6-azaindol-3-yl]-ethane-1,2-dione], less than 1 µM.
On to `COc1cnc(-n2cnc(C)n2)c2[nH]cc(C(=O)C(=O)N3CCC(=C(c4ccccc4)c4nnc(C(C)C)o4)CC3)c12` [Example 81, 1-[4-(1-Phenyl-1-(5-isopropyl-1,3,4-oxadiazol-2-yl)-methylene)-piperidin-1-yl]-2-[4-methoxy-7-(3-methyl-1,2,4-triazol-1-yl)-6-azaindol-3-yl]-ethane-1,2-dione], for which the EC50 was less than 1 µM.
The figure for `N#CC(=C1CCN(C(=O)C(=O)c2c[nH]c3c(-c4nccs4)ccnc23)CC1)c1ccccc1` [Example 104, {1-[2-Oxo-2-(7-thiazol-2-yl-1H-pyrrolo[3,2-b]pyridin-3-yl)-acetyl]-piperidin-4-ylidene}-phenyl-acetonitrile] is less than 1 µM; for `COc1ccccc1C(=C1CCN(C(=O)C(=O)c2c[nH]c3c(OC)ncc(OC)c23)CC1)c1ccccc1` [Example 65] it is less than 1 µM.
To `COc1ncc(OC)c2c(C(=O)C(=O)N3CCC(=C(C#N)c4nnc(-c5ccccc5)o4)CC3)c[nH]c12` [Example 122, 1-[4-(1-Cyano-1-(5-phenyl-1,3,4-oxadiazol-2-yl)-methylene)-piperidin-1-yl]-2-(4,7-dimethoxy-6-azaindol-3-yl)-ethane-1,2-dione] belongs more than 5 µM; to `COc1ncc(OC)c2c(C(=O)C(=O)N3CCC(=C(c4ccccc4)c4ccc(C#N)cc4)CC3)c[nH]c12` [Example 59], less than 1 µM.
To `COc1ncc(OC)c2c(C(=O)C(=O)N3CCC(=C(c4ccccc4)c4nnc(C)o4)CC3)c[nH]c12` [Example 52, 1-[4-(1-Phenyl-1-(5-methyl-1,3,4-oxadiazol-2-yl)-methylene)-piperidin-1-yl]-2-(4,7-dimethoxy-6-azaindol-3-yl)-ethane-1,2-dione] belongs less than 1 µM; to `COc1cnc(-c2cnccn2)c2[nH]cc(C(=O)C(=O)N3CCC(=C(c4ccccc4)c4ccc(F)cc4)CC3)c12` [Example 93], less than 1 µM; to `COc1ncc(OC)c2c(C(=O)C(=O)N3CCC(=C(F)c4ccccc4)CC3)c[nH]c12` [Example 9], less than 1 µM.
For the molecule `COc1cnc(-c2cc(C)n[nH]2)c2[nH]cc(C(=O)C(=O)N3CCC(=C(c4ccccc4)c4nnc(C)o4)CC3)c12` [Example 140, 1-[4-(1-Phenyl-1-(5-methyl-1,3,4-oxadiazol-2-yl)-methylene)-piperidin-1-yl]-2-(4-methoxy-7-(5-methylpyrazole-3-yl)-6-azaindol-3-yl)-ethane-1,2-dione], the EC50 is less than 1 µM.
To `COc1ncc(OC)c2c(C(=O)C(=O)N3CCC(=C(C#N)c4c(C)sc(C)c4C)CC3)c[nH]c12` [Example 125, 1-[4-(1-Cyano-1-(2,3,5-trimethylthien-4-yl)-methylene)-piperidin-1-yl]-2-(4,7-dimethoxy-6-azaindol-3-yl)-ethane-1,2-dione] belongs more than 5 µM.
As for `COc1ncc(OC)c2c(C(=O)C(=O)N3CCC(=C(C#CC4CC4)c4ccccc4)CC3)c[nH]c12` [Example 115, 1-[4-(1-Phenyl-1-(2-cyclopropylethyn-1-yl)-methylene)-piperidin-1-yl]-2-(4,7-dimethoxy-6-azaindol-3-yl)-ethane-1,2-dione], the EC50 was less than 1 µM.
Take `COc1cnc(-n2ccc(C)n2)c2[nH]cc(C(=O)C(=O)N3CCC(=C(c4ccccc4)c4csc(C)n4)CC3)c12` [Example 100]: the concentration for a half-maximal effect (EC50) was less than 1 µM.
Consider `COc1cnc(-n2cnc(C)n2)c2[nH]cc(C(=O)C(=O)N3CCC(=C(c4ccccc4)c4cn(C)cn4)CC3)c12` [Example 136, 1-[4-(1-Phenyl-1-(1-methylimidazol-4-yl)-methylene)-piperidin-1-yl]-2-(4-methoxy-7-(3-methyl-1,2,4-triazol-1-yl)-6-azaindol-3-yl)-ethane-1,2-dione], for which the 50% effective concentration (EC50) was less than 1 µM.
